Experimental data as given in the SangsterLogP compilation.

test: from Kabankin, S.; Boldeskul, E.; Trinus, P.; Protsenko, D.; Landau, A. (1982). Physicochemical characteristics, antitumor activity and quantitative structure-activity relations for phosphoric …; conditions: pH 7.4

Going from `O=C(NP(=O)(N1CC1)N1CC1)c1cc(I)cc(I)c1I` to `O=C(NP(=O)(N1CC1)N1CC1)c1cc(I)cc(I)c1`, the logD rises from 0.81 to 2.52.

First: O=C(NP(=O)(N1CC1)N1CC1)c1cc(Br)cc(Br)c1
Second: O=C(NP(=O)(N1CC1)N1CC1)c1cccc(Br)c1
The logD of the first is higher: 1.15 for the first, 0.88 for the second.

Compared with `O=C(NP(=O)(N1CC1)N1CC1)c1ccc(I)cc1`, `O=C(NP(=O)(N1CC1)N1CC1)c1ccc(Cl)cc1` is lower in logD: 1.63 for the first, 0.46 for the second.

First: CCOc1cccc(C(=O)NP(=O)(N2CC2)N2CC2)c1
Second: COc1cccc(C(=O)NP(=O)(N2CC2)N2CC2)c1
The logD of the first is higher: 0.42 for the first, 0.04 for the second.

`O=C(NP(=O)(N1CC1)N1CC1)c1ccc(F)cc1` and `COc1ccc(C(=O)NP(=O)(N2CC2)N2CC2)cc1` are within 0.2 log units of each other in logD: 0.13 for the first, -0.02 for the second.

First: O=C(NP(=O)(N1CC1)N1CC1)c1cccc(I)c1
Second: C=CCc1cccc(C(=O)NP(=O)(N2CC2)N2CC2)c1
The logD of the first is higher: 1.37 for the first, 0.65 for the second.

First: C=CCc1ccc(C(=O)NP(=O)(N2CC2)N2CC2)cc1
Second: O=C(NP(=O)(N1CC1)N1CC1)c1ccccc1
The logD of the first is higher: 0.69 for the first, -0.15 for the second.

For `O=C(NP(=O)(N1CC1)N1CC1)c1ccccc1Br`, the logD was 0.45.
